Experimental data reported in patent US7576188B2, “Antitumoral treatments” (Pharma Mar, S.A.U., priority 2004, dated 2009).
Read-outs that look alike come from different tables or passages of the source. Numbered stars: 1 amine (or outer) side, 2 acyl side, 3 side chain; on linkers, the order of the positions; unused ones are H or OH. Bridge positions count the residues as written; N and C are the ends. Square brackets hold non-standard residues; d marks the D form. Peptide text beside a SMILES is read from it. * marks the point of attachment. X1 = CC[C@H](C)[C@@H](N[*:1])[C@@H](O)CC(=O)O[C@H](C(=O)[C@H](C)C(=O)[*:2])C(C)C; NMeY = CN[C@@H](Cc1ccc(O)cc1)C(=O)O; dNMeL = CN[C@H](CC(C)C)C(=O)O; Pyruvoyl = CC(=O)C(=O)*

Experiments:
CEM-T leukemic cells = experiment: In vivo antitumor effect in SCID mice xenograft model; settings: AraC alone at 50 mg/kg, intra-peritoneally
Description: SCID mice were inoculated subcutaneously in the right flank with 10^7 CEM-T leukemic cells. They were observed twice weekly for tumor formation at the site of inoculation. After establishment of palpable tumor, alidine was injected as single agent and in combination with several doses of AraC to determine the antitumor effect. Mice were randomized to receive alidine alone at doses of 0.75 mg/kg and 1 mg/kg, AraC alone at 50 mg/kg, or combination of Aplidine and AraC for all dose combinations. […] All drugs were administered intra-peritoneally, and tumor size was compared to a control group of mice not receiving any treatment and for combination groups, compared to tumor sizes with single agent treatment.

SKI-DLCL cells [1] = settings: for IC50: 96 hours
Description: (§3) Cell viability is measured by XTT assay in an automated plate reader.
(§4) All the citotoxicity studies were performed by using XTT or MTS.
(§5) Data was obtained after cell incubation for 96 hours and using XTT asay. The results represent means of three different experiments.

CCRF-CEM cells = experiment: XTT/MTS cytotoxicity, single agents and combinations, CCRF-CEM; settings: for Viability (% of control): single agent at its IC50 dose
Description: as §3, §4, §5

K562 cells [2] = experiment: XTT/MTS cytotoxicity, single agents and combinations, K562; settings: for Viability (% of control): K562, single agent at its IC50 dose
Description: as §3
(§6) Chou-Talalay analysis was used to analyze the drug combinations.
(§7) All the citotoxicity studies were performed by using XTT or MTS. We first determined the IC50 dose of these drugs in SKI-DLCL, CCRF-CEM and K562 cell lines. We investigated drug combinations using IC50(Aplidine):IC50(DrugX) fixed ratio.

[3] = test system: K562, CEM and SKI-DLCL cell lines; experiment: Combination of IC20 aplidine with a dose range of additional drug (Table 1); type: cell-based
Description: Drug combination studies were carried out on established cell lines rather than primary cells. We studied three cell lines, viz. K562 as a model for acute myeloid leukemia, CEM representing acute lymphocytic leukemia and SKI-DLCL representing diffuse large cell lymphoma. Combination studies with IC20 and IC 50 dose of aplidine with a dose range of methotrexate, cytosine arabinoside and doxorubicin were tested to determine if aplidine could potentiate the effect of these drugs.

SKI-DLCL cells [4] = experiment: cells; settings: 96 h
Description: as §3, §4, §5

preB-ALL (DM4) cells = experiment: Viability of primary preB-ALL (DM4) cells cultured with aplidine; type: cell-based, human
Description: (§1) Aplidine was tested against various primary cells from patients with hematologic malignancies. The cells used were: • fresh cells obtained from six chronic lymphocytic leukemia patients • primary cell from a patient with preB-ALL (DM4)
(§2) Patient samples were obtained with prior consent and CLL cells were isolated by density gradient centrifugation over histopaque. The media used was RPMI supplemented with 10% autologous serum and L-glutamine. The cultures were incubated with 10 nM aplidine and cell viability was measured days 3, 7,11 and 18 and compared with viability of untreated cells and STI 571 (0.5 mM).

[5] = Determination of maximum tolerated dose in SCID mice; type: in vivo, C.B.-17 scid/scid (SCID) mice; settings: total dose given in five daily doses
Excerpt: We have used an in vivo model of human lymphoma in SCID mice for this purpose. Specifically, we have used CCRF-CEMS cells and CB.17 scid/scid mice. We have experience with this model and have evaluated drug treatments using this xenograft (Lacerda J. F. et al. Blood 85 (10): 2675-2679 (1995)).

[6] = solubilised, heat and light stress; cited from earlier work
[7] = at maximum tolerated doses, clinical Phase I; except for mild lymphopenia; cited from earlier work
[8] = test system: chronic lymphocytic leukemia (CLL) cells; experiment: Viability of fresh primary CLL cells cultured with aplidine; type: cell-based, human
Description: as §1, §2

ALL-MOLT4 cells = settings: cited from earlier work
K562 cells [9] = test system: K562 cells
Description: as §3, §6, §7

[10] = test system: AML and ALL samples from pediatric patients; settings: de novo or relapsed ALL and AML; cited from earlier work
[11] = SKI-DLCL, single agent at its IC50 dose
[12] = read-out: IC50 dose, single agent, SKI-DLCL
[13] = read-out: IC50 dose, single agent, 96 hours
[14] = Homo sapiens, K562, No Aplidine
[15] = Homo sapiens, K562, with IC20 Aplidine (0.5 nM)
[16] = Homo sapiens, K562, 96 h, read-out: IC50 dose, single agent, K562, 96 hours

Nc1ccn([C@@H]2O[C@H](CO)[C@@H](O)[C@@H]2O)c(=O)n1 [AraC, cytosine arabinoside]
in vivo antitumor effect (tumor growth) (CEM-T leukemic cells): tumor growth was inhibited but no tumor regression occurred
Viability (% of control) (SKI-DLCL cells [1]; [11]): 50 % of control
IC50 (SKI-DLCL cells [1]; read-out: IC50 dose of AraC, SKI-DLCL, in combination with IC20 (APL), XTT): 1.6 nM
IC50 (SKI-DLCL cells [1]; [12]): 30 nM
IC50 (CCRF-CEM cells; read-out: IC50 dose of AraC, in combination with IC20 (APL), 96 hours, XTT): 0.8 nM
IC50 (CCRF-CEM cells; [13]): 10 nM
Viability (% of control) (CCRF-CEM cells): 56.4 % of control
Viability (% of control) (K562 cells [2]): 50 % of control
IC50 (K562 cells [2]; read-out: IC50 dose, single agent, K562, 96 hours): 30 nM
IC50 ([3]; No Aplidine): 30 nM
IC50 ([3]; with IC20 Aplidine (0.5 nM)): 6 nM

COc1cccc2c1C(=O)c1c(O)c3c(c(O)c1C2=O)C[C@@](O)(C(=O)CO)C[C@@H]3O[C@H]1C[C@H](N)[C@H](O)[C@H](C)O1 [Dox, doxorubicin]
IC50 (SKI-DLCL cells [4]; read-out: IC50 dose): 5 nM
Viability (% of control) (SKI-DLCL cells [1]; [11]): 50 % of control
IC50 [3, 14]: 18 nM
IC50 [3, 15]: 1 nM

CN(Cc1cnc2nc(N)nc(N)c2n1)c1ccc(C(=O)N[C@@H](CCC(=O)O)C(=O)O)cc1 [MTX, methotrexate]
IC50 (CCRF-CEM cells; [13]): 10 nM
Viability (% of control) (CCRF-CEM cells): 50 % of control
IC50 [3, 14]: 5 nM
IC50 [3, 15]: 0.5 nM

C[C@H]1C[C@@H]2[C@H]([C@@H](O)C[C@@]3(C)[C@H]2CC[C@]3(O)C(=O)CO)[C@@]2(C)C=CC(=O)C=C12 [Metpred, methylprednisolone]
IC50 (SKI-DLCL cells [4]; read-out: IC50 dose): 160 nM
Viability (% of control) (SKI-DLCL cells [1]; [11]): 51 % of control

O=C1c2c(O)ccc(O)c2C(=O)c2c(NCCNCCO)ccc(NCCNCCO)c21 [Mitox, mitoxantrone]
IC50 (SKI-DLCL cells [4]; read-out: IC50 dose): 5 nM
Viability (% of control) (SKI-DLCL cells [1]; [11]): 50 % of control
IC50 (CCRF-CEM cells; [13]): 30 nM
Viability (% of control) (CCRF-CEM cells): 56 % of control
IC50 (K562 cells [2]; [16]): 7.5 nM
Viability (% of control) (K562 cells [2]): 50.7 % of control

CC[C@]1(O)C[C@@H]2CN(CCc3c([nH]c4ccccc34)[C@@](C(=O)OC)(c3cc4c(cc3OC)N(C)[C@H]3[C@@](O)(C(=O)OC)[C@H](OC(C)=O)[C@]5(CC)C=CCN6CC[C@]43[C@@H]65)C2)C1 [Vinb, vinblastine]
IC50 (SKI-DLCL cells [4]; read-out: IC50 dose): 4 nM
Viability (% of control) (SKI-DLCL cells [1]; [11]): 50 % of control

CC[C@H](C)[C@H]1NC(=O)[C@@H](NC(=O)[C@@H](CC(C)C)N(C)C(=O)[C@@H]2CCCN2C(=O)C(C)=O)[C@@H](C)OC(=O)[C@H](Cc2ccc(OC)cc2)N(C)C(=O)[C@@H]2CCCN2C(=O)[C@H](CC(C)C)NC(=O)[C@@H](C)C(=O)[C@H](C(C)C)OC(=O)C[C@@H]1O [aplidine, Dehydrodidemnin B] (Pyruvoyl-P[dNMeL]T[X1]LP[NMeY](Me); ester 3-C)
inhibition of preB-ALL cells in culture (preB-ALL (DM4) cells; FIG. 2): potent inhibitor
IC50 (preB-ALL (DM4) cells; Homo sapiens, 72 h, DM4 line, 3 day exposure): 10 nM
maximum dose that can be tolerated (MTD) [5]: 1 mg/kg/week
IC50 (SKI-DLCL cells [4]; read-out: IC50 dose, single agent, SKI-DLCL, 96 hours): 0.5 to 1 nM
degradation under stress testing [6]: substantial degradation
myelotoxicity [7]: not myelotoxic
Viability (% of control) (SKI-DLCL cells [1]): 50 % of control
IC50 (SKI-DLCL cells [1]; [12]): 0.5 nM
growth of CLL cells in culture ([8]; FIG. 1): inhibits growth
IC50 ([8]; Homo sapiens, CLL cell, 264 h, primary CLL samples, 11 day exposure): 10 nM
VEGF secretion (ALL-MOLT4 cells): block VEGF secretion
Viability (% of control) (K562 cells [9]): 50 % of control
IC50 (CCRF-CEM cells; [13]): 0.5 nM
IC50 (K562 cells [2]; [16]): 0.5 to 1 nM
IC50 (K562 cells [2]; read-out: IC50 dose, single agent, K562, 96 hours, listed as APL): 1 nM
concentration with in vitro cytotoxic activity [10]: 5 nM
